One data set can be described thus: Solubility. The data set is classed as physicochemical.
For data set [1], the system named is Tetrahymena pyriformis W strain. As to the kind of experiment: Minimal inhibitory concentration, serial broth dilution method. The class given is cell-based. As to conditions: 28° C., 44 to 48 hours. As for the experimental part:
On the other hand, Tetrahymena pyriformis W strain, as a test organism, was cultivated on an assay medium [Proteose-peptone (Difco) 20 g, yeast extract 1 g, glucose 2 g, distilled water 1000 ml, 1 M phosphate buffer (pH 7.0) 10 ml] at 28° C. for 44 to 48 hours and the minimal inhibitory concentrations of the antibiotics against said organisms were determined by the serial broth dilution method.
On the technique in general: Dilution methods test growth across graded concentrations, often in twofold steps.

A further data set has as its system Proteus mirabilis. As to the kind of experiment: Antimicrobial activity, paper disk method on trypticase-soy-agar. The class given is cell-based. As to conditions: paper disk diam. 8 mm, 0.02 ml of a 300 μg/ml solution. The procedure: (§1) Using trypticase-soy-agar (Baltimore Biologicals, U.S.A.) as a test medium, the minimal inhibitory concentration of each compound against the following microorganisms was determined by the paper disk method. Thus, on plate media containing the following organisms, growth inhibition was investigated using paper disks (Toyo Roshi Corp., Japan thin-type, diam. 8 mm) imbibed with 0.02 ml of a 300 μg/ml solution of PND-1, PND-2, PND-3 or PND-4.
(§2) Escherichia coli, Proteus vulgaris, Proteus mirabilis, Pseudomonas aeruginosa, Staphylococcus aureus, Bacillus subtilis, Bacillus cereus, Klebsiella pneumoniae, Serratia marcescens, Mycobacterium avium.

A further data set has as its system Staphylococcus aureus. The description is as above. As to conditions: paper disk diam. 8 mm, 0.02 ml of a 300 μg/ml solution. The data set is classed as cell-based. As for the experimental part: as §1, §2
The next data set has as its system Escherichia coli. The description is as above. The data set is classed as cell-based. As to conditions: paper disk diam. 8 mm, 0.02 ml of a 300 μg/ml solution. As for the experimental part: as §1, §2
The next data set concerns Klebsiella pneumoniae. Described as above. The data set is classed as cell-based. As to conditions: paper disk diam. 8 mm, 0.02 ml of a 300 μg/ml solution. As for the experimental part: as §1, §2
The subject of another data set is Serratia marcescens. The data set is described as above. As to conditions: paper disk diam. 8 mm, 0.02 ml of a 300 μg/ml solution. The data set is classed as cell-based. As for the experimental part: as §1, §2
Another data set has as its system Bacillus subtilis. The data set is described as above. As to conditions: paper disk diam. 8 mm, 0.02 ml of a 300 μg/ml solution. The data set is classed as cell-based. As for the experimental part:
as §1, §2

For the next data set, the system named is Proteus vulgaris. The description is as above. The class given is cell-based. The following applies: paper disk diam. 8 mm, 0.02 ml of a 300 μg/ml solution. As for the experimental part: as §1, §2
A further data set deals with Bacillus cereus. The data set is described as above. The data set is classed as cell-based. As to conditions: paper disk diam. 8 mm, 0.02 ml of a 300 μg/ml solution. The procedure: as §1, §2
The next data set has as its system Pseudomonas aeruginosa. Described as above. The class given is cell-based. As to conditions: paper disk diam. 8 mm, 0.02 ml of a 300 μg/ml solution. As for the experimental part: as §1, §2
Another data set has as its system Mycobacterium avium. The description is as above. The data set is classed as cell-based. As to conditions: paper disk diam. 8 mm, 0.02 ml of a 300 μg/ml solution. The procedure: as §1, §2
The test system of data set [2] is Hamigera avellanea IFO 7721. As to the kind of experiment: Microbiological assay, paper disk method. As to conditions: IFO7721, paper disk diam. 8 mm, 0.02 ml of a 100 μg/ml solution, pH 7.0 medium, read-out: diameter of zone of inhibition. The data set is classed as cell-based. The procedure: On the other hand, on a plate assay medium [disodium phosphate 3.5 g, monopotassium phosphate 0.5 g, yeast extract (Difco, U.S.A.) 5 g, glucose 10 g, agar 15 g, distilled water 1000 ml, pH 7.0], a microbiological assay was carried out by the paper disk method using Hamigera avellanea IFO 7721 as a test organism. On said plate medium inoculated with said organism, growth inhibition was examined using a paper disk (Toyo Roshi Corp., Japan, Thin type, diam.8 mm) imbibed with 0.02 ml of a 100 μg/ml solution of PND-1, PND-2, PND-3 or PND-4. The diameters of zones of inhibition were 28 mm for PND-1, 30 mm for PND-2, 34 mm for PND-3 and 36 mm for PND-4.

The subject of the next data set is mice. As to the kind of experiment: Acute toxicity test in mice. The data set is classed as in vivo. As to conditions: intraperitoneal. The text has this: In an acute toxicity test performed in mice, PND-1, PND-2, PND-3 and PND-4 were given to animals by the intraperitoneal route.
The subject of a further data set is P388 tumor cell. As to the kind of experiment: Antitumor activity in P388 tumor-bearing mice. The data set is classed as in vivo. As to conditions: P388 1×10^6 cell/mouse, intraperitoneal. The source says: The therapeutic action of PND-1, PND-2, PND-3 and PND-4 against P388 tumor cell (1×10^6 cell/mouse, intraperitoneal) was investigated.

The results in this text go back to patent US4362663A, “Maytansinoid compound” (Takeda Chemical Industries, Ltd., priority 1979, dated 1982).

For orientation: MIC means the lowest concentration found to suppress growth. Low readings indicate a more susceptible organism, high ones a less susceptible organism. As a reminder, the zone of inhibition is the extent of the growth-free halo in a diffusion test.

≈ marks a conversion by molar mass, not a printed value.

On to `COc1cc2cc(c1Cl)NC(=O)C[C@H](O)[C@]1(C)O[C@H]1[C@H](C)[C@@H]1C[C@@](O)(NC(=O)O1)[C@H](OC)/C=C/C=C(\C)C2` [PND-0], for which, in “Solubility”, the “Solubility in chloroform, ethyl acetate, acetone, ethanol, methanol, pyridine, tetrahydrofuran, dimethylsulfoxydo” value (from here on “Solubility in chloroform, ethyl acetate”) is on record as “soluble” and the “Solubility in petroleum ether, n-hexane, water” value (from here on “Solubility in petroleum ether”) is on record as “insoluble”.

`COc1cc2cc(c1Cl)NC(=O)C[C@H](OC(C)=O)[C@]1(C)O[C@H]1[C@H](C)[C@@H]1C[C@@](O)(NC(=O)O1)[C@H](OC)/C=C/C=C(\C)C2` [PND-1] displayed an MIC in data set [1] of 8 µg/mL (≈ 13.5 µM). The growth inhibition result with Proteus mirabilis, in the data set on Staphylococcus aureus, in the data set with Escherichia coli, with Klebsiella pneumoniae, in the data set on Serratia marcescens and with Bacillus subtilis was “did not exhibit activity” each time. Further, the growth inhibition entry with Proteus vulgaris, in the data set on Bacillus cereus, with Pseudomonas aeruginosa and in the data set with Mycobacterium avium was “did not exhibit activity” throughout. In addition, the zone of inhibition at 100 µg/mL in [2] amounted to 28 mm. For the same molecule, in the data set on mice, the LD0 came to 0.313 mg/kg. The same molecule came in with an LD100 in the data set on mice of 2.5 mg/kg. The “life span of tumor-bearing mouse” value in the data set on P388 tumor cell is on record as “prolong the life span of a tumor-bearing mouse”. Also, in the data set “Solubility”, the “Solubility in chloroform, ethyl acetate” value was “soluble”. In “Solubility”, the “Solubility in petroleum ether” value is “insoluble”.

In data set [1], `CCC(=O)O[C@H]1CC(=O)Nc2cc(cc(OC)c2Cl)C/C(C)=C/C=C/[C@@H](OC)[C@@]2(O)C[C@H](OC(=O)N2)[C@@H](C)[C@@H]2O[C@@]12C` [PND-2] returned an MIC of 4 µg/mL (≈ 6.59 µM). The growth inhibition result with Proteus mirabilis, in the data set on Staphylococcus aureus, in the data set on Escherichia coli, in the data set on Klebsiella pneumoniae, in the data set with Serratia marcescens and with Bacillus subtilis was “did not exhibit activity” each time. For the same molecule, the growth inhibition entry in the data set on Proteus vulgaris, in the data set with Bacillus cereus, in the data set with Pseudomonas aeruginosa and with Mycobacterium avium was “did not exhibit activity” throughout. In addition, in data set [2], the zone of inhibition at 100 µg/mL was 30 mm. Also, the LD0 in the data set with mice is reported as 0.313 mg/kg. The LD100 in the data set on mice was determined as 2.5 mg/kg. In the data set on P388 tumor cell, the “life span of tumor-bearing mouse” value is on record as “prolong the life span of a tumor-bearing mouse”. For the same molecule, in the data set “Solubility”, the “Solubility in chloroform, ethyl acetate” value is on record as “soluble”. The “Solubility in petroleum ether” value in “Solubility” is “insoluble”.

Molecule `COc1cc2cc(c1Cl)NC(=O)C[C@H](OC(=O)C(C)C)[C@]1(C)O[C@H]1[C@H](C)[C@@H]1C[C@@](O)(NC(=O)O1)[C@H](OC)/C=C/C=C(\C)C2` [PND-3] gave an MIC in data set [1] of 2 µg/mL (≈ 3.22 µM). Further, the growth inhibition result with Proteus mirabilis, in the data set on Staphylococcus aureus, in the data set on Escherichia coli, in the data set on Klebsiella pneumoniae, in the data set on Serratia marcescens and in the data set on Bacillus subtilis was “did not exhibit activity” each time. For the same molecule, the growth inhibition entry in the data set with Proteus vulgaris, with Bacillus cereus, in the data set on Pseudomonas aeruginosa and in the data set on Mycobacterium avium was “did not exhibit activity” each time. Besides, the zone of inhibition at 100 µg/mL in [2] was determined as 34 mm. In addition, the LD0 in the data set on mice was determined as 0.313 mg/kg. Besides, in the data set with mice, the LD100 turned out to be 2.5 mg/kg. Besides, the “life span of tumor-bearing mouse” value with P388 tumor cell is recorded as “prolong the life span of a tumor-bearing mouse”. Besides, the “Solubility in chloroform, ethyl acetate” value in the data set “Solubility” is on record as “soluble”. Moreover, in the data set “Solubility”, the “Solubility in petroleum ether” value is “insoluble”.

Turning to `COc1cc2cc(c1Cl)NC(=O)C[C@H](OC(=O)CC(C)C)[C@]1(C)O[C@H]1[C@H](C)[C@@H]1C[C@@](O)(NC(=O)O1)[C@H](OC)/C=C/C=C(\C)C2` [PND-4], the MIC in [1] amounted to 1 µg/mL (≈ 1.57 µM). In addition, the growth inhibition result in the data set on Proteus mirabilis, in the data set on Staphylococcus aureus, in the data set with Escherichia coli, in the data set with Klebsiella pneumoniae, with Serratia marcescens and in the data set with Bacillus subtilis was “did not exhibit activity” in each case. Also, the growth inhibition entry in the data set with Proteus vulgaris, in the data set with Bacillus cereus, in the data set on Pseudomonas aeruginosa and in the data set with Mycobacterium avium was “did not exhibit activity” throughout. Moreover, the zone of inhibition at 100 µg/mL in [2] is 36 mm. Also, in the data set on mice, the LD0 came out at 0.313 mg/kg. The LD100 in the data set on mice stood at 2.5 mg/kg. The “life span of tumor-bearing mouse” value with P388 tumor cell is recorded as “prolong the life span of a tumor-bearing mouse”. Also, the “Solubility in chloroform, ethyl acetate” value in the data set “Solubility” is reported as “soluble”. For the same molecule, the “Solubility in petroleum ether” value in “Solubility” is recorded as “insoluble”.
